From PMC10178421 (2023)

Assays:
[1] = system: CPG-ds27 (DNA, hairpin) CGCGAATTCGCGTTTCGCGAATTCGCG; assay: G4-CPG affinity chromatography; conditions: 50 mM KCl; 10% DMSO, 10% ethanol; 60 μM compound; error ±2%
[2] = system: CPG-tel26 (DNA, G4) TTAGGGTTAGGGTTAGGGTTAGGGTT; assay: G4-CPG affinity chromatography; conditions: 50 mM KCl; 10% DMSO, 10% ethanol; 60 μM compound; error ±2%
[3] = system: CPG-c-myc (DNA, G4) TGGGGAGGGTGGGGAGGGTGGGGAAGGTGGGGA; assay: G4-CPG affinity chromatography; conditions: 50 mM KCl; 10% DMSO, 10% ethanol; 60 μM compound; error ±2%
[4] = system: ds12 (DNA, duplex) CGCGAATTCGCG; assay: fluorescence titration (ligand quenching); conditions: 20 mM KCl, 5 mM potassium phosphate; pH 7, 20 °C; 2 μM ligand; independent equivalent-sites fit; average over multiple binding events
[5] = system: Pu22 (DNA, G4) TGAGGGTGGGTAGGGTGGGTAA; assay: fluorescence titration (ligand quenching); conditions: 20 mM KCl, 5 mM potassium phosphate; pH 7, 20 °C; 2 μM ligand; independent equivalent-sites fit; average over multiple binding events
[6] = system: tel26 (DNA, G4) TTAGGGTTAGGGTTAGGGTTAGGGTT; assay: fluorescence titration (ligand quenching); conditions: 20 mM KCl, 5 mM potassium phosphate; pH 7, 20 °C; 2 μM ligand; independent equivalent-sites fit; average over multiple binding events
[7] = system: Pu22 (DNA, G4) TGAGGGTGGGTAGGGTGGGTAA; assay: CD melting (265 nm); conditions: no added metal cations; 10 mM Tris-HCl, pH 7; 2 μM DNA, 20 μM ligand (10 equiv)

SMILES	Bound Ligand (%) [1]	Bound Ligand (%) [2]	Bound Ligand (%) [3]	Kb [4]	Kb [5]	Kb [6]	ΔTm [7]
C=CC12C(=O)C(C)(O)C(CC1c1cc(C)cc3c1-c1ccc(O)c(C)c1CC3)C1=C2c2ccc(OC)c(C)c2CC1 (stereo not shown)	0%	0%	0%	–	–	–	–
C=CC12C(=O)C(C)(O)C3CC1c1c4c(cc(C)c1C31CCc3c(ccc(O)c3C)C21O)CCc1c-4ccc(O)c1C (stereo not shown)	38%	48%	56%	–	–	–	–
C=Cc1c(C)c(O[C@@H]2O[C@H](CO)[C@@H](O)[C@H](O)[C@H]2O)cc2c1-c1ccc(O)c(C)c1CC2	0%	0%	3%	–	–	–	–
C=Cc1c(C)c(O[C@H]2O[C@H](CO)[C@@H](O)[C@H](O)[C@H]2O)cc2c1-c1ccc(O)c(C)c1CC2	0%	0%	0%	–	–	–	–

Further lines, results first:

Bound Ligand (%) [1]	Bound Ligand (%) [2]	Bound Ligand (%) [3]	Kb [4]	Kb [5]	Kb [6]	ΔTm [7]	SMILES
0%	19%	18%	(6.0 ± 1.7) × 10^5 M^-1	(4.4 ± 0.7) × 10^5 M^-1	(2.3 ± 0.9) × 10^6 M^-1	–	C=CC12C3=C(CCc4c3ccc(O)c4C)C(CC1c1cc(C)cc3c1-c1ccc(O)c(C)c1CC3)C(C)(O)C2O (stereo not shown)
0%	2%	4%	–	–	–	–	C=Cc1c(C)c(O)cc2c1-c1ccc(O)c(C)c1CC2
2%	9%	8%	–	–	–	+4 °C	Cc1c(O)cc2c3c1CCc1cc(O[C@H]4O[C@H](CO)[C@@H](O)[C@H](O)[C@H]4O)c(C)c(c1-3)CC2
